Measured values taken from PubChem BioAssay AID2060326 (Molecular Pharmacology Branch, DTP, NCI, 2025).
Where “and” joins values, the source holds several entries; their conditions need not be identical. Equal values may be shown once.

System: MDA-MB-468 multi-cell spheroids, viability
Test: Anticancer human tumor MDA-MB-468 cell line growth inhibition [IpAb];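 also: spheroids exposed to agents for seven days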;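 as to viability, T/C: 100% = DMSO vehicle control viability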
Details: for viability, T/C: stronger effect = lower value; active = viability on the fitted dose curve at most 10% of control; inactive = the rest
Procedure, shortened: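 Combinations with ipatasertib or abemaciclib were tested on tumour spheroids holding HUVEC (25%) and MSC (15%) alongside 60% malignant cells. Top concentration was at or near clinical Cmax (10 microM if undefined), descending in half-log steps.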

[1] = curve of first compound, second compound 0.1 µM
[2] = curve of first compound, second compound 0.316 µM
[3] = curve of first compound, second compound 1 µM
[4] = curve of first compound, second compound 3.16 µM
[5] = curve of first compound, second compound 10 µM
[6] = second compound 0.1 µM, first compound 0.0316 µM
[7] = second compound 0.1 µM, first compound 0.1 µM
[8] = second compound 0.316 µM, first compound 0.0316 µM
[9] = second compound 0.316 µM, first compound 0.1 µM
[10] = second compound 1 µM, first compound 0.0316 µM
[11] = second compound 1 µM, first compound 0.1 µM
[12] = second compound 3.16 µM, first compound 0.0316 µM
[13] = second compound 3.16 µM, first compound 0.1 µM
[14] = second compound 10 µM, first compound 0.0316 µM
[15] = second compound 10 µM, first compound 0.1 µM
[16] = curve of first compound, second compound 0.01 µM
[17] = curve of first compound, second compound 0.0316 µM
[18] = second compound 0.01 µM, first compound 0.0316 µM
[19] = second compound 0.01 µM, first compound 0.1 µM
[20] = second compound 0.01 µM, first compound 0.316 µM
[21] = second compound 0.01 µM, first compound 1 µM
[22] = second compound 0.01 µM, first compound 3.16 µM
[23] = second compound 0.01 µM, first compound 10 µM
[24] = second compound 0.0316 µM, first compound 0.0316 µM
[25] = second compound 0.0316 µM, first compound 0.1 µM
[26] = second compound 0.0316 µM, first compound 0.316 µM
[27] = second compound 0.0316 µM, first compound 1 µM
[28] = second compound 0.0316 µM, first compound 3.16 µM
[29] = second compound 0.0316 µM, first compound 10 µM
[30] = second compound 0.1 µM, first compound 0.316 µM
[31] = second compound 0.1 µM, first compound 1 µM
[32] = second compound 0.1 µM, first compound 3.16 µM
[33] = second compound 0.1 µM, first compound 10 µM
[34] = second compound 0.316 µM, first compound 0.316 µM
[35] = second compound 0.316 µM, first compound 1 µM
[36] = second compound 0.316 µM, first compound 3.16 µM
[37] = second compound 0.316 µM, first compound 10 µM
[38] = second compound 1 µM, first compound 0.316 µM
[39] = second compound 1 µM, first compound 1 µM
[40] = second compound 1 µM, first compound 3.16 µM
[41] = second compound 1 µM, first compound 10 µM

C=CC(=O)N1CCN(c2nc(=O)n(-c3c(C)ccnc3C(C)C)c3nc(-c4c(O)cccc4F)c(F)cc23)C(C)C1 (stereo unspecified)
7490 nM and 8200 nM: IC50 (curve of compound)
inactive: viability, T/C (compound 0.0316 µM) 90.5% and 115% | viability, T/C (compound 0.1 µM) 103% and 119% | viability, T/C (compound 0.316 µM) 121% and 129% | viability, T/C (compound 1 µM) 105% | viability, T/C (compound 3.16 µM) 93.5% and 110% | viability, T/C (compound 10 µM) 35.1% and 37.1%

Cn1ncnc1[C@H]1c2n[nH]c(=O)c3cc(F)cc(c23)N[C@@H]1c1ccc(F)cc1 + CC(C)NCC(C(=O)N1CCN(c2ncnc3c2C(C)CC3O)CC1)c1ccc(Cl)cc1
< 0.316 nM: IC50 [4] | IC50 [5]
inactive: viability, T/C (second compound 0.1 µM, first compound 0.000316 µM) 101% | viability, T/C (second compound 0.1 µM, first compound 0.001 µM) 102% | viability, T/C (second compound 0.1 µM, first compound 0.00316 µM) 86.9% | viability, T/C (second compound 0.1 µM, first compound 0.01 µM) 73.8% | viability, T/C [6] 85.8% | viability, T/C [7] 65.7% | viability, T/C (second compound 0.316 µM, first compound 0.000316 µM) 62% | viability, T/C (second compound 0.316 µM, first compound 0.001 µM) 70.7% | viability, T/C (second compound 0.316 µM, first compound 0.00316 µM) 62.1% | viability, T/C (second compound 0.316 µM, first compound 0.01 µM) 60.2% | viability, T/C [8] 55.5% | viability, T/C [9] 57.7% | viability, T/C (second compound 1 µM, first compound 0.000316 µM) 60.8% | viability, T/C (second compound 1 µM, first compound 0.001 µM) 59.2% | viability, T/C (second compound 1 µM, first compound 0.00316 µM) 55.1% | viability, T/C (second compound 1 µM, first compound 0.01 µM) 54.2% | viability, T/C [10] 46.2% | viability, T/C [11] 41.8% | viability, T/C (second compound 3.16 µM, first compound 0.000316 µM) 38.9% | viability, T/C (second compound 3.16 µM, first compound 0.001 µM) 37.8% | viability, T/C (second compound 3.16 µM, first compound 0.00316 µM) 40% | viability, T/C (second compound 3.16 µM, first compound 0.01 µM) 34.9% | viability, T/C [12] 34% | viability, T/C [13] 26.6% | viability, T/C (second compound 10 µM, first compound 0.000316 µM) 19.3% | viability, T/C (second compound 10 µM, first compound 0.001 µM) 22.5% | viability, T/C (second compound 10 µM, first compound 0.00316 µM) 18.6% | viability, T/C (second compound 10 µM, first compound 0.01 µM) 18.8% | viability, T/C [14] 16% | viability, T/C [15] 15.6%
17.9 nM: IC50 [3]
> 100 nM: IC50 [1] | IC50 [2]

C=CCn1c(=O)c2cnc(Nc3ccc(N4CCN(C)CC4)cc3)nc2n1-c1cccc(C(C)(C)O)n1 + CCN1CCN(Cc2ccc(Nc3ncc(F)c(-c4cc(F)c5nc(C)n(C(C)C)c5c4)n3)nc2)CC1
461 nM: IC50 [17]
467 nM: IC50 [16]
active: viability, T/C [21] 6.04% | viability, T/C [22] 2.55% | viability, T/C [23] 2.34% | viability, T/C [27] 6.12% | viability, T/C [28] 2.93% | viability, T/C [29] 2.24% | viability, T/C [32] 3.42% | viability, T/C [33] 2.91% | viability, T/C [35] 9.63% | viability, T/C [36] 3.67% | viability, T/C [37] 2.2% | viability, T/C [39] 6.76% | viability, T/C [40] 2.84% | viability, T/C [41] 1.01%
417 nM: IC50 [3]
408 nM: IC50 [1]
inactive: viability, T/C [18] 108% | viability, T/C [19] 75.5% | viability, T/C [20] 72.8% | viability, T/C [24] 96.3% | viability, T/C [25] 87.9% | viability, T/C [26] 71.3% | viability, T/C [6] 121% | viability, T/C [7] 93.1% | viability, T/C [30] 67.3% | viability, T/C [31] 5.75% | viability, T/C [8] 105% | viability, T/C [9] 102% | viability, T/C [34] 89.7% | viability, T/C [10] 72.3% | viability, T/C [11] 79.5% | viability, T/C [38] 63.5%
560 nM: IC50 [2]

CCN1CCN(Cc2ccc(Nc3ncc(F)c(-c4cc(F)c5nc(C)n(C(C)C)c5c4)n3)nc2)CC1
inactive: viability, T/C (compound 0.1 µM) 102% [middle of 13 runs]
> 1000 nM: IC50 (compound alone, run of 05/18/2021)

Cc1nc(NC(=O)N2CCCC2C(N)=O)sc1-c1ccnc(C(C)(C)C(F)(F)F)c1 (stereo unspecified) + CCN1CCN(Cc2ccc(Nc3ncc(F)c(-c4cc(F)c5nc(C)n(C(C)C)c5c4)n3)nc2)CC1
1290 nM: IC50 [3]
4970 nM: IC50 [1]
active: viability, T/C [41] 6.3%
inactive: viability, T/C [18] 108% | viability, T/C [19] 90.6% | viability, T/C [20] 102% | viability, T/C [21] 79.2% | viability, T/C [22] 102% | viability, T/C [23] 37.4% | viability, T/C [24] 77.8% | viability, T/C [25] 83.4% | viability, T/C [26] 68% | viability, T/C [27] 86% | viability, T/C [28] 69% | viability, T/C [29] 24.4% | viability, T/C [6] 99.8% | viability, T/C [7] 91.9% | viability, T/C [30] 98.9% | viability, T/C [31] 86% | viability, T/C [32] 67.3% | viability, T/C [33] 23.7% | viability, T/C [8] 91% | viability, T/C [9] 89.7% | viability, T/C [34] 77.7% | viability, T/C [35] 79.3% | viability, T/C [36] 57.2% | viability, T/C [37] 16.5% | viability, T/C [10] 57.9% | viability, T/C [11] 68.1% | viability, T/C [38] 62.9% | viability, T/C [39] 55.1% | viability, T/C [40] 30.6%
7820 nM: IC50 [16]
3890 nM: IC50 [2]
5280 nM: IC50 [17]

CCCS(=O)(=O)Nc1ccc(F)c(C(=O)c2c[nH]c3ncc(-c4ccc(Cl)cc4)cc23)c1F + CCN1CCN(Cc2ccc(Nc3ncc(F)c(-c4cc(F)c5nc(C)n(C(C)C)c5c4)n3)nc2)CC1
> 10000 nM: IC50 [16] | IC50 [17] | IC50 [1] | IC50 [2]
inactive: viability, T/C [18] 89.8% | viability, T/C [19] 88.3% | viability, T/C [20] 101% | viability, T/C [21] 124% | viability, T/C [22] 108% | viability, T/C [23] 88.7% | viability, T/C [24] 104% | viability, T/C [25] 91.1% | viability, T/C [26] 99.1% | viability, T/C [27] 113% | viability, T/C [28] 79.5% | viability, T/C [29] 57.5% | viability, T/C [6] 106% | viability, T/C [7] 114% | viability, T/C [30] 104% | viability, T/C [31] 117% | viability, T/C [32] 99.5% | viability, T/C [33] 51.4% | viability, T/C [8] 102% | viability, T/C [9] 103% | viability, T/C [34] 104% | viability, T/C [35] 98.4% | viability, T/C [36] 111% | viability, T/C [37] 64.1% | viability, T/C [10] 76.9% | viability, T/C [11] 78.4% | viability, T/C [38] 85.7% | viability, T/C [39] 74.2% | viability, T/C [40] 66.5% | viability, T/C [41] 26.2%
5030 nM: IC50 [3]

Cn1nccc1Nc1nccc(-c2ccn(C(CO)c3ccc(Cl)c(F)c3)c(=O)c2)n1 (stereo unspecified)
4400 nM and 4230 nM: IC50 (curve of compound)
5.12% and 13.2%: viability, T/C (compound 10 µM)
inactive: viability, T/C (compound 0.0316 µM) 84.7% and 94.8% | viability, T/C (compound 0.1 µM) 91.9% and 98.6% | viability, T/C (compound 0.316 µM) 100% and 83.9% | viability, T/C (compound 1 µM) 84.2% and 81.8% | viability, T/C (compound 3.16 µM) 68.4% and 64.4%

C=CCn1c(=O)c2cnc(Nc3ccc(N4CCN(C)CC4)cc3)nc2n1-c1cccc(C(C)(C)O)n1 + CC(C)NCC(C(=O)N1CCN(c2ncnc3c2C(C)CC3O)CC1)c1ccc(Cl)cc1
383 nM: IC50 [1]
active: viability, T/C [31] 5.21% | viability, T/C [32] 3.03% | viability, T/C [33] 2.74% | viability, T/C [35] 2.96% | viability, T/C [36] 3.13% | viability, T/C [37] 2.21% | viability, T/C [39] 2.27% | viability, T/C [40] 2.93% | viability, T/C [41] 1.68% | viability, T/C (second compound 3.16 µM, first compound 1 µM) 1.82% | viability, T/C (second compound 3.16 µM, first compound 3.16 µM) 3.18% | viability, T/C (second compound 3.16 µM, first compound 10 µM) 1.47% | viability, T/C (second compound 10 µM, first compound 0.316 µM) 9.24% | viability, T/C (second compound 10 µM, first compound 1 µM) 1.81% | viability, T/C (second compound 10 µM, first compound 3.16 µM) 2.55% | viability, T/C (second compound 10 µM, first compound 10 µM) 1.3%
inactive: viability, T/C [6] 101% | viability, T/C [7] 89.3% | viability, T/C [30] 59.5% | viability, T/C [8] 78.6% | viability, T/C [9] 63.7% | viability, T/C [34] 42.6% | viability, T/C [10] 59.4% | viability, T/C [11] 40.8% | viability, T/C [38] 25.7% | viability, T/C [12] 32.1% | viability, T/C [13] 27.2% | viability, T/C (second compound 3.16 µM, first compound 0.316 µM) 15.7% | viability, T/C [14] 17.8% | viability, T/C [15] 14%
60.2 nM: IC50 [3]
< 31.6 nM: IC50 [4] | IC50 [5]
212 nM: IC50 [2]
